Test results from ChEMBL document CHEMBL1147286, “7-O-methylhorminone and other cytotoxic diterpene quinones from Lepechinia bullata” (1989).
In brackets after ≈: the same amount, converted by molar mass.

Assays:
[1] = system: KB; experiment: Cytotoxicity against human KB cells; format: functional; details: read-out: ED50 (the source's name)
[2] = system: P388; experiment: Cytotoxicity against mouse P388 cells; format: functional; details: read-out: ED50 (the source's name)

Structure (SMILES)	EC50 [1] [µg/mL]	EC50 [2] [µg/mL]
CC(C)C1=C(O)C(=O)C2=C(C=C[C@H]3C(C)(C)CCC[C@]23C)C1=O	5.7 (≈ 18.1 µM)	1.6 (≈ 5.09 µM)
CO[C@@H]1C[C@H]2C(C)(C)CCC[C@]2(C)C2=C1C(=O)C(C(C)C)=C(O)C2=O	13 (≈ 37.5 µM)	4.8 (≈ 13.9 µM)
CC(C)C1=C(O)C(=O)C2=C(C1=O)[C@H](O)C[C@H]1C(C)(C)CCC[C@]21C [HORMINONE]	20.2 (≈ 60.8 µM)	4.6 (≈ 13.8 µM)
